Measurements: US20040018150A1, “Prodrugs of phosphonate nucleotide analogues and methods for selecting and making same” (priority 2003, published 2004)
Like-named read-outs stand apart in the source and are kept apart here.

Columns and labels:
[1] = system: PLCE (porcine liver carboxyesterase); test: in vitro; type: in vitro ADME; conditions: 37° C., PBS pH 7.4
Procedure: (§1) The in vitro metabolism and stability of separated diastereomers were determined in PLCE, MT-2 extract and human plasma. A biological sample listed below, 80 μL, was transferred into a screw-capped centrifuge tube and incubated at 37° C. for 5 min. A solution containing 0.2 mg/mL of the test compound in a suitable buffer, 20 μL, was added to the biological sample and mixed. The reaction mixture, 20 μL, was immediately sampled and mixed with 60 μL of methanol containing 0.015 mg/mL of 2-hydroxymethylnaphthalene as an internal standard for HPLC analysis. The sample was taken as the time-zero sample. Then, at specific time points, the reaction mixture, 20 μL, was sampled and mixed with 60 μL of methanol containing the internal standard. The mixture thus obtained was centrifuged at 15,000 G for 5 min and the supernatant was analyzed with HPLC under the conditions described below.
(§2) (1) PLCE (porcine liver carboxyesterase from Sigma, 160 u/mg protein, 21 mg protein/mL) diluted 20 fold with PBS (phosphated-buffered saline).
(§3) In the study for PLCE, the test compound was dissolved in PBS. PBS (phosphate-buffered saline, Sigma) contains 0.01 M phosphate, 0.0027 M potassium chloride, and 0.137 M sodium chloride. pH 7.4 at 37° C.
(§4) The HPLC analysis was carried out under the following conditions.

[2] = system: porcine liver carboxyesterase (PLCE); test: in vitro; type: in vitro ADME; conditions: pig; 37° C., PBS pH 7.4; read-out: PLCE hydrolysis rate t1/2
Procedure: as §1, §2, §3, §4

[3] = Incubation of radiolabeled PMPA prodrugs or PMPA in human whole blood; metabolites in plasma, PBMCs and RBCs; type: in vitro ADME; conditions: human blood; for Total C-14 Recovered: 1 h incubation, 60 μg-eq; for Metabolites (% of Total Peak Area): GS 7340: 1 h
Procedure: After 1 hour, plasma, red blood cells (RBCs) and peripheral blood mononuclear cells (PBMCs) were isolated and analyzed by HPLC with radiometric detection.

[4] = Excretion and tissue distribution of radiolabelled prodrug in dogs; conditions: dogs; for % Dose / Conc.: oral 10 mg-eq. PMPA/kg
Procedure: Plasma and peripheral blood mononuclear cells (PBMCs) were obtained over the 24-hr period. Urine and feces were cage collected over 24 hr. At 24 h after the dose, the animals were sacrificed and tissues removed for analysis. Total radioactivity in tissues was determined by oxidation and liquid scintillation counting.

[5] = Stability / hydrolysis in MT-2 cell extract; type: in vitro ADME
Procedure: as §1
(2) MT-2 cell extract was prepared from MT-2 cells according to the published procedure [A. Pompon, I. Lefebvre, J.-L. Imbach, S. Kahn, and D. Farquhar, “Antiviral Chemistry & Chemotherapy”, 5:91-98 (1994)] except for using HEPES buffer described below as the medium.
In the study for MT-2 cell extracts, the test compound was dissolved in HEPES buffer. HEPES buffer contains 0.010 M HEPES, 0.05 M potassium chloride, 0.005 M magnesium chloride, and 0.005 M dl-dithiothreitol. pH 7.4 at 37° C.
as §4

HIV-1 = test: microbe, parasite or virus in culture
[6] = Cytotoxicity in MT-2 cells; conditions: human
[7] = Stability in human plasma; type: in vitro ADME
Procedure: as §1
(3) Human plasma (pooled normal human plasma from George King Biomedical Systems, Inc.)
In the study for human plasma, the test compound was dissolved in TBS. TBS (tris-buffered saline, Sigma) contains 0.05 M Tris, 0.0027 M potassium chloride, and 0.138 M sodium chloride. pH 7.5 at 37° C.
as §4

## CC(C)OC(=O)[C@H](C)N[P@](=O)(CO[C@H](C)Cn1cnc2c(N)ncnc21)Oc1ccccc1 (single isomer, unassigned) [GS-7340]
[1]
  PLCE hydrolysis product: Met. X & PMPA
[2]
  half-life at 0.04 mg/mL: 3.3 min
[3]; PBMC
  Total C-14 Recovered: 1.25 μg-eq
[3]; Plasma/FP
  Metabolites (% of Total Peak Area): GS 7340: 84%
  Total C-14 Recovered: 43.0 μg-eq
[3]; RBC/FP
  Metabolites (% of Total Peak Area): GS 7340: 57%
  Total C-14 Recovered: 12.6 μg-eq
[3]; plasma after 1 hour
  radioactivity in plasma due to intact GS-7340: 84%
[4]; Abdominal fat, 24 h
  % Dose: 0.00%
  Conc.: 0.90 ug-eq/g
[4]; Adrenal Gland, 24 h
  % Dose: 0.00%
  Conc.: 3.47 ug-eq/g
[4]; Axillary Lymph Nodes, 24 h
  % Dose: 0.01%
  Conc.: 5.54 ug-eq/g
[4]; Bile, 24 h
  % Dose: 0.22%
  Conc.: 40.48 ug-eq/g
[4]; Bone Marrow, 24 h
  % Dose: 0.00%
  Conc.: 2.05 ug-eq/g
[4]; Brain, 24 h
  % Dose: 0.00%
  Conc.: <LOD
[4]; Cerebrospinal Fluid, 24 h
  % Dose: 0.00%
  Conc.: 0.00 ug-eq/g
[4]; Duodenum, 24 h
  % Dose: 0.44%
  Conc.: 8.77 ug-eq/g
[4]; Eye (L + R), 24 h
  % Dose: 0.00%
  Conc.: 0.23 ug-eq/g
[4]; Feces, collected over 24 hr
  % Dose: 0.19%
[4]; Femoral Bone, 24 h
  % Dose: 0.00%
  Conc.: 0.28 ug-eq/g
[4]; Gall bladder, 24 h
  % Dose: 0.04%
  Conc.: 25.02 ug-eq/g
[4]; Heart, 24 h
  % Dose: 0.15%
  Conc.: 1.97 ug-eq/g
[4]; Ileum, 24 h
  % Dose: 0.16%
  Conc.: 4.61 ug-eq/g
[4]; Iliac Lymph Nodes, 24 h
  % Dose: 0.01%
  Conc.: 5.42 ug-eq/g
[4]; Inguinal Lymph Nodes, 24 h
  % Dose: 0.00%
  Conc.: 4.12 ug-eq/g
[4]; Jejunum, 24 h
  % Dose: 0.79%
  Conc.: 4.16 ug-eq/g
[4]; Kidney, 24 h
  % Dose: 3.78%
  Conc.: 80.21 ug-eq/g
[4]; Large Intestine, 24 h
  % Dose: 2.65%
  Conc.: 47.20 ug-eq/g
[4]; Liver, 24 h
  % Dose: 16.45%
  Conc.: 52.94 ug-eq/g
[4]; Lungs, 24 h
  % Dose: 0.34%
  Conc.: 4.33 ug-eq/g
[4]; Mesenteric Lymph Nodes, 24 h
  % Dose: 0.04%
  Conc.: 6.88 ug-eq/g
[4]; PBMC
  % Dose: 0.00%
[4]; PBMC, calculated using typical recovery of 15 × 10^6 cells total, mean PBMC volume 0.2 picoliters/cell
  Conc.: 63.20 ug-eq/g
[4]; Pancreas, 24 h
  % Dose: 0.01%
  Conc.: 3.51 ug-eq/g
[4]; Pituitary Gland, 24 h
  % Dose: 0.00%
  Conc.: 1.80 ug-eq/g
[4]; Plasma at 0.25 h
  Conc.: 3.48 ug-eq/g
[4]; Plasma at 24 h
  % Dose: 0.00%
  Conc.: 0.20 ug-eq/g
[4]; Prostate, 24 h
  % Dose: 0.00%
  Conc.: 2.14 ug-eq/g
[4]; Salivary Gland (L + R), 24 h
  % Dose: 0.03%
  Conc.: 5.54 ug-eq/g
[4]; Skeletal Muscle, 24 h
  % Dose: 0.01%
  Conc.: 1.12 ug-eq/g
[4]; Skin, 24 h
  % Dose: 0.00%
  Conc.: 0.95 ug-eq/g
[4]; Spinal Cord, 24 h
  % Dose: 0.00%
  Conc.: 0.04 ug-eq/g
[4]; Spleen, 24 h
  % Dose: 0.17%
  Conc.: 8.13 ug-eq/g
[4]; Stomach, 24 h
  % Dose: 0.26%
  Conc.: 2.68 ug-eq/g
[4]; Testes (L + R), 24 h
  % Dose: 0.02%
  Conc.: 2.01 ug-eq/g
[4]; Thyroid Gland, 24 h
  % Dose: 0.00%
  Conc.: 4.78 ug-eq/g
[4]; Total GI Tract Contents, 24 h
  % Dose: 21.64%
[4]; Total Recovery, 24 h
  % Dose: 68.96%
[4]; Urine, collected over 24 hr
  % Dose: 14.73%
[4]; Whole Blood, 24 h
  % Dose: 0.16%
  Conc.: 0.20 ug-eq/g
[4]; 24 hours after single oral dose, versus TDF
  increase of levels of PMPA in the lymphatic tissues, bone marrow, and skeletal muscle: 10 fold
[5]; 37° C., HEPES buffer pH 7.4
  MT-2 extract hydrolysis product: Met. X & PMPA
[5]; human, pH 7.4, MT-2 cell extract, read-out: Stability T 1/2 MT-2 Cell Extract
  half-life at 0.04 mg/mL: 28.3 min
HIV-1; Human immunodeficiency virus 1, MT2
  IC50: 5 nM
HIV-1; Human immunodeficiency virus 1, MT2, read-out: HIV IC50
  IC50: 5 nM
HIV-1; Human immunodeficiency virus 1, MT2, read-out: HIV-1 Activity IC50
  IC50: 5 nM
[6]; CC50, cell culture
  CC50: ≥ 40000 nM
[6]; Cytotoxicity CC50, MT-2 cells
  CC50: > 40000 nM
[7]; 37° C., TBS pH 7.5
  Human Plasma Stability (HP) product: Met. Y
[7]; pH 7.5, human plasma, read-out: Stability T 1/2 Human Plasma
  half-life at 0.04 mg/mL: 90 min
